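Grown in 96-well plates, cells were treated for 48 hours with each compound at five concentrations. Insufficient inhibition: endpoint recorded as highest concentration tested. The concentration for 50% growth inhibition is given as GI50.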 Active and inactive are the calls of the source. No stated cut-off is given here; in the data, active = GI50 up to about 1.1 µM and inactive = higher.
Key:
Test in all cases: DTP human tumour cell line panel, 48 h
SN12C = test system: SN12C
COLO 205 = test system: COLO 205
SNB-78 = test system: SNB-78
HL-60 = test system: HL-60
SNB-19 = test system: SNB-19
NCI-H23 = test system: NCI-H23
SW-620 = test system: SW-620
OVCAR-4 = test system: OVCAR-4
CCRF-CEM = test system: CCRF-CEM
NCI-H522 = test system: NCI-H522
DMS-273 = test system: DMS-273
UO-31 = test system: UO-31
DLD-1 = test system: DLD-1
EKVX = test system: EKVX
OVCAR-8 = test system: OVCAR-8
SK-OV-3 = test system: SK-OV-3
RXF 393 = test system: RXF 393
HOP-92 = test system: HOP-92
MDA-N = test system: MDA-N
T47D = test system: T47D

Structure (SMILES) | GI50 (SN12C) | GI50 (COLO 205) | GI50 (SNB-78) | GI50 (HL-60) | GI50 (SNB-19) | GI50 (NCI-H23) | GI50 (SW-620) | GI50 (OVCAR-4) | GI50 (CCRF-CEM) | GI50 (NCI-H522) | GI50 (DMS-273) | GI50 (UO-31) | GI50 (DLD-1) | GI50 (EKVX) | GI50 (OVCAR-8) | GI50 (SK-OV-3) | GI50 (RXF 393) | GI50 (HOP-92) | GI50 (MDA-N) | GI50 (T47D)
CC/C(=N/O)c1ccc2[nH]c3c(C)cc([N+](=O)[O-])c(C)c3c2c1 | 76.2 µM (inactive) | 71.4 µM (inactive) | > 100 µM (inactive) | 12.7 µM (inactive) | > 100 µM (inactive) | 82.4 µM (inactive) | 84.7 µM (inactive) | 87.9 µM (inactive) | 15.1 µM (inactive) | 22.9 µM (inactive) | 19.4 µM (inactive) | 57.8 µM (inactive) | 16.2 µM (inactive) | > 100 µM (inactive) | 53.2 µM (inactive) |  |  |  |  | 
N#CC(C(=N/O)/C(=N\O)C(C#N)c1ccccc1)c1ccccc1 (stereo unspecified) | > 100 µM (inactive) | > 100 µM (inactive) | > 100 µM (inactive) | > 100 µM (inactive) | > 100 µM (inactive) | > 100 µM (inactive) | > 100 µM (inactive) | > 100 µM (inactive) | > 100 µM (inactive) | > 100 µM (inactive) |  | > 100 µM (inactive) | > 100 µM (inactive) | > 100 µM (inactive) | > 100 µM (inactive) | > 100 µM (inactive) | > 100 µM (inactive) | > 100 µM (inactive) |  | 
CS(=O)(=O)NNS(=O)(=O)c1ccccc1 | > 100 µM (inactive) | > 100 µM (inactive) |  | > 100 µM (inactive) | > 100 µM (inactive) | > 100 µM (inactive) | > 100 µM (inactive) | > 100 µM (inactive) | > 100 µM (inactive) | > 100 µM (inactive) | > 100 µM (inactive) | > 100 µM (inactive) | > 100 µM (inactive) | > 100 µM (inactive) | > 100 µM (inactive) |  | > 100 µM (inactive) |  |  | 
OC(C1=C/C(=C\c2ccncc2)c2ccccc21)c1ccncc1 (stereo unspecified) | 13.9 µM (inactive) | 14.5 µM (inactive) |  | 1.66 µM (inactive) | 19.1 µM (inactive) | 12.4 µM (inactive) | 23 µM (inactive) | 12.4 µM (inactive) | 7.41 µM (inactive) | 9.48 µM (inactive) |  | 8.99 µM (inactive) |  | 5.65 µM (inactive) | 22.2 µM (inactive) | 13.8 µM (inactive) | 14 µM (inactive) | 13.6 µM (inactive) | 10.8 µM (inactive) | 4.38 µM (inactive)
O=C1c2ccccc2C(=O)N1C/C=N/NS(=O)(=O)c1ccc(Cl)cc1 | > 100 µM (inactive) | > 100 µM (inactive) |  | > 100 µM (inactive) | > 100 µM (inactive) | > 100 µM (inactive) | > 100 µM (inactive) | > 100 µM (inactive) | > 100 µM (inactive) | > 100 µM (inactive) | > 100 µM (inactive) | > 100 µM (inactive) | > 100 µM (inactive) | > 100 µM (inactive) | > 100 µM (inactive) |  |  |  |  | 
CCOC(=O)COc1cccc2c1C(=O)CCO2 | > 100 µM (inactive) | > 100 µM (inactive) | > 100 µM (inactive) | > 100 µM (inactive) | > 100 µM (inactive) | > 100 µM (inactive) | > 100 µM (inactive) | > 100 µM (inactive) | > 100 µM (inactive) | > 100 µM (inactive) | > 100 µM (inactive) | > 100 µM (inactive) | > 100 µM (inactive) | > 100 µM (inactive) | > 100 µM (inactive) | > 100 µM (inactive) |  |  |  | 
C=CCO/N=C/c1cc(/N=C(/S)c2ccoc2C)ccc1Cl | 12.8 µM (inactive) | 12.4 µM (inactive) |  | 20.6 µM (inactive) | 7.28 µM (inactive) | 10 µM (inactive) | 33.8 µM (inactive) | 5.18 µM (inactive) | 33.3 µM (inactive) | 8.22 µM (inactive) |  | 5.15 µM (inactive) |  | 11.9 µM (inactive) | 13.5 µM (inactive) | 18 µM (inactive) | 21.3 µM (inactive) | 17.3 µM (inactive) | 13.6 µM (inactive) | 3.65 µM (inactive)
Cc1cccc(Nc2cnc(N)nc2N)c1 | > 100 µM (inactive) | > 100 µM (inactive) |  | > 100 µM (inactive) | > 100 µM (inactive) | > 100 µM (inactive) | > 100 µM (inactive) | > 100 µM (inactive) | > 100 µM (inactive) | > 100 µM (inactive) |  | 90.2 µM (inactive) |  | > 100 µM (inactive) | > 100 µM (inactive) | > 100 µM (inactive) | 98.9 µM (inactive) | > 100 µM (inactive) | > 100 µM (inactive) | > 100 µM (inactive)
Nc1nc2sc3ccccc3c(=O)n2n1 | > 100 µM (inactive) | > 100 µM (inactive) | > 100 µM (inactive) | > 100 µM (inactive) | > 100 µM (inactive) | > 100 µM (inactive) | > 100 µM (inactive) | > 100 µM (inactive) | > 100 µM (inactive) |  | > 100 µM (inactive) | > 100 µM (inactive) | > 100 µM (inactive) | 64.7 µM (inactive) | > 100 µM (inactive) | > 100 µM (inactive) | > 100 µM (inactive) | > 100 µM (inactive) |  | 
Nc1ccc2nc(NCc3ccc(F)cc3)cnc2c1 | > 100 µM (inactive) | > 100 µM (inactive) | 75.7 µM (inactive) | 54.1 µM (inactive) | 44.5 µM (inactive) | > 100 µM (inactive) | > 100 µM (inactive) | > 100 µM (inactive) | > 100 µM (inactive) | > 100 µM (inactive) | > 100 µM (inactive) | 21.3 µM (inactive) |  | > 100 µM (inactive) | > 100 µM (inactive) |  | 59.6 µM (inactive) |  |  | 
CCN(CC)C(=O)c1cccc2c(OC)ccc(OC)c12 | > 100 µM (inactive) | > 100 µM (inactive) |  | > 100 µM (inactive) | > 100 µM (inactive) | > 100 µM (inactive) | > 100 µM (inactive) | > 100 µM (inactive) | > 100 µM (inactive) | > 100 µM (inactive) | > 100 µM (inactive) | > 100 µM (inactive) | > 100 µM (inactive) | > 100 µM (inactive) | > 100 µM (inactive) | > 100 µM (inactive) | > 100 µM (inactive) |  |  | 
O=C(NOC(=O)c1ccc([N+](=O)[O-])cc1)c1ccc(Cl)cc1 | 62.4 µM (inactive) | > 100 µM (inactive) | 16.6 µM (inactive) | 15.8 µM (inactive) | > 100 µM (inactive) | > 100 µM (inactive) | 38 µM (inactive) | 88.9 µM (inactive) | 28.2 µM (inactive) | 27 µM (inactive) |  | 23.8 µM (inactive) | 38.7 µM (inactive) | > 100 µM (inactive) | 98.6 µM (inactive) | > 100 µM (inactive) | 87.1 µM (inactive) | 27.4 µM (inactive) |  | 
COc1cc(C(=O)N(C(=S)OC23CC4CC(CC(C4)C2)C3)c2ccccc2)cc(OC)c1OC | 28.6 µM (inactive) | 16.4 µM (inactive) |  | 9.73 µM (inactive) | 34.6 µM (inactive) | 28 µM (inactive) | 22.7 µM (inactive) | 29.2 µM (inactive) | 2.89 µM (inactive) | 3.95 µM (inactive) |  | 19.1 µM (inactive) |  | 14.8 µM (inactive) | 27 µM (inactive) | 25.8 µM (inactive) | 32.7 µM (inactive) | 21 µM (inactive) | 25.1 µM (inactive) | 43.2 µM (inactive)
Cc1cc(O)ccc1C1(c2ccc(F)cc2)OC(=O)c2ccccc21 (stereo unspecified) | 0.485 µM (active) | 1.82 µM (inactive) |  | 34 µM (inactive) | 4.15 µM (inactive) | 0.787 µM (active) | 12.9 µM (inactive) | 0.289 µM (active) | 28.3 µM (inactive) | 0.646 µM (active) |  | 4 µM (inactive) |  | 3.18 µM (inactive) | 0.413 µM (active) | 3.65 µM (inactive) | 1.24 µM (inactive) | 1.99 µM (inactive) | 11.6 µM (inactive) | 0.318 µM (active)
COc1ccc(C2NC(=S)Nc3c2c(=O)oc2c3ccc3ccccc32)cc1 (stereo unspecified) | 88.5 µM (inactive) | > 100 µM (inactive) |  | 92.3 µM (inactive) | 35.7 µM (inactive) | 67.3 µM (inactive) | > 100 µM (inactive) | 69.2 µM (inactive) | 46 µM (inactive) | > 100 µM (inactive) |  | 77.1 µM (inactive) |  | 27.4 µM (inactive) | 92.3 µM (inactive) | > 100 µM (inactive) | > 100 µM (inactive) | 41.8 µM (inactive) | 76.9 µM (inactive) | 50.6 µM (inactive)
Cc1c2c(OCCN3CCCCC3)nn(C)c(=O)c2c(C)n1-c1ccccc1 | 56.1 µM (inactive) | 17.7 µM (inactive) |  | 31 µM (inactive) | 77.1 µM (inactive) | 28.1 µM (inactive) | 55 µM (inactive) | 63.8 µM (inactive) | 35.7 µM (inactive) | 26.7 µM (inactive) |  | 12.2 µM (inactive) |  | 50.6 µM (inactive) | 74.8 µM (inactive) | 56.1 µM (inactive) | 33.4 µM (inactive) | 58.9 µM (inactive) | 35.1 µM (inactive) | 41.2 µM (inactive)
CC1(C)C(=NNC(=S)NN)C(C)(C)C1=NNC(=S)NN | > 100 µM (inactive) | > 100 µM (inactive) |  | > 10 µM (inactive) | > 100 µM (inactive) | > 100 µM (inactive) | > 100 µM (inactive) | > 100 µM (inactive) | 60.8 µM (inactive) | 75 µM (inactive) |  |  | > 100 µM (inactive) | > 100 µM (inactive) | > 100 µM (inactive) | > 100 µM (inactive) | > 100 µM (inactive) | > 100 µM (inactive) |  | 
